The source of these data is a melting point compilation (Tetko et al.; mined from patent text by program, amines drawn as free bases though some values may be those of a salt).

`COc1cc(C(=O)c2c(-c3ccc(OCCN4CCCC4)cc3)sc3ccc(O)cc23)ccc1CN1CCCC1` displayed a melting point of 95 to 99 °C.
Then `CC(C(=O)O)c1ccc2oc3ncccc3c(=O)c2c1` (stereo not given), with 194 to 195 °C.
Regarding `CN(C)C(=O)c1cccnc1S(=O)(=O)Br`, the melting point was 108 to 111 °C.
Then `CCCCOC(=O)CCCCCCCCCCCOCC(O)CNCCO` (stereo not given), with 48.6 to 50.2 °C.
To `CC(C)(C)OC(=O)N1CCC(NCc2cccc(NC(=O)c3ccc(F)cc3Cl)n2)CC1` belongs 79.1 °C; to `O=C(NCCCCCCCCn1ccnc1)c1cc2cc(Cl)ccc2[nH]1`, 187 to 189 °C; to `O=C(O)c1ccc(Oc2ccc(Oc3ccc(C(=O)O)c(C(=O)O)c3)c(P(=O)(c3ccccc3)c3ccccc3)c2)cc1C(=O)O`, 212 to 218 °C.
To `O=C(O)CNC(=O)C(CS)Cc1ccc2c(c1)OCO2` (racemic) belongs 94 °C.
`OCCN(CCO)Cc1ccc(-c2cc3ncnc(Nc4ccc5[nH]ccc5c4)c3s2)cc1` displayed a melting point of 110 to 127 °C.
To `CC(C)n1nc(-c2c(-c3ccccc3)nn3ccc(N4CCCC4=O)cc23)ccc1=O` belongs 266 to 267 °C; to `CCOP(=O)(OCC)C1CCNc2ccc(C(F)(F)F)cc21` (stereo not given), 94 °C; to `Cc1cc(CCl)nc(Nc2ccccc2)n1`, 100 to 101 °C.
To `COC1(OC)SC(c2nccs2)=C(C)NC1=O` belongs 127 to 128 °C; to `CCCCNCP(=O)(O)O`, 236 to 240 °C.
Then `CCOC(=O)c1cc(NC(=O)C(CSC(C)=O)Cc2ccc(Cl)cc2)c[nH]1` (stereo not given), with 141 to 144 °C.
Consider `COc1ccc(Cl)c([N+](=O)[O-])c1Cl`, for which the melting point was in the range of 97 to 99 °C.
Then `O=Cc1cc(C(F)(F)F)ccc1Sc1ccccc1F`, with 130 to 132 °C.
To `Cc1ccc(O)cc1N=C(c1ccccc1)c1ccccc1` belongs 106 to 108 °C; to `CCOC(=O)c1c(N2CCNCC2)c2cccnc2n(Cc2ccccc2)c1=O`, 120 °C; to `CNc1ccc2[nH]ccc2c1`, 113 to 114 °C.
Then `CN(C)C(=N)CSc1nnc(S)s1`, with 95 to 97 °C; and `CC12CCC(=O)C=C1CCC1C2CCC2(C)C1CCC2(OC=O)C(=O)CCl` (stereo not given), with 202 °C; and `NC(=O)Cn1c(-c2ccccn2)nc2cccnc21`, with 275 to 278 °C.
For the compound `C#CCOc1cc(NC(=O)CC(CC(=O)O)C(F)(F)F)ccc1Cl` (stereo not given), the melting point was 128 to 130 °C.
To `CC(C)N=C1C(c2ccccc2)=C(c2ccccc2)C(c2ccccc2)=C1c1ccccc1` belongs 223 °C; to `CC(=NO)C(C)(C)NCCN(C)NC(C)(C)C(C)=NO`, 130 to 131 °C.
To `CCOC(=O)CON(CC)C(=S)Nc1ccc(Cl)cc1C` belongs 69 to 71 °C.
Then `COc1ccc2c(c1)c1c3c(c(-c4ccccc4)cc1n2CCC(N)=O)C(=O)NC3=O`, with 266 to 270 °C; and `CC(=O)Nc1nccc(Oc2ccc3c(C(=O)Nc4ccc(F)c(C(F)(F)F)c4)cccc3c2)n1`, with 213 to 214 °C.
`COC(=O)C(=O)c1ccc(OCCOc2ccc(OC)c(OC)c2)cc1` came in with a melting point of 93 to 94 °C.
Compound `Ic1nc(-c2ccccn2)[nH]c1I` displayed a melting point of 177 to 179 °C.
Then `CC(=O)c1cc2c(cn1)[nH]c1ccccc12`, with 174 to 175 °C; and `CCCn1c(=O)n(C)c(=O)c2[nH]c(-c3cc(S(=O)(=O)NCCNC)ccc3OCC)c(Cl)c21`, with 226 °C; and `O=C(NCCc1ccccc1)Nc1ccc2ncc(Br)cc2n1`, with 245 to 246 °C.
To `O=C(OCc1ccccc1)[C@H](CC(=O)N1C[C@H]2CCCC[C@H]2C1)Cc1ccccc1` belongs 107 to 108 °C; to `CS(=O)(=O)c1ccc(-n2nc(CCCN3C(=O)c4ccccc4C3=O)cc2-c2ccccc2)cc1`, 62.4 to 72.2 °C; to `CC(C)(C)c1cc(OCc2cccc(-c3nnn[nH]3)c2)cc(C(C)(C)C)c1O`, 163 to 164 °C.
For `COC(=O)C(C#N)c1ncc(Cl)cc1Cl` (stereo not given), the melting point was in the range of 109 to 110 °C.
To `Fc1ccc(C2=CC(=C(C(F)(F)F)C(F)(F)F)N=C2c2ccc(F)cc2)cc1` belongs 145 to 146 °C; to `COC(=O)C1=C(C)Nc2nc(N)nc(N)c2C1c1ccccc1F` (stereo not given), 208 °C; to `CCOCCn1c(NC2CCN(CCC3(c4ccc(C)c(C)c4)CCN(C(=O)c4cc(OC)c(OC)c(OC)c4)C3)CC2)nc2ccccc21` (stereo not given), 108 to 119 °C.
To `CCOc1ccc(S(=O)(=O)N[C@H](CCCN2C(=O)c3ccccc3C2=O)C(=O)O)cc1` belongs 151 to 152 °C.
Consider `Cc1ccc(CN2CCC(NC(=O)NC(=O)c3ccccc3)CC2)cc1C`, for which the melting point is 239 to 240 °C.
Compound `Cc1[nH]c(=O)n(-c2cc(C(=O)OC(C)C)c(Cl)cc2F)c(=O)c1I` displayed a melting point of 211 to 213 °C.
The compound `COc1ccc(COC(=O)NCCc2c[nH]c3ccc(F)cc23)cc1` displayed a melting point of 118 to 119 °C.
Then `CCn1c(=O)c2c(nc(/C=C/c3ccc(OCC(C)=O)c(OC)c3)n2C)n(CC)c1=O`, with 206 °C; and `CCSCCCCCSCCCCC(=O)O`, with 49.5 to 50 °C; and `CCCCOc1ccc(NC(=O)NCC2(c3ccccc3)CCCCC2)cc1`, with 142 to 143 °C.
`O=C1C(=O)c2ccc(Br)cc2C2=C1SCC1(CCN(C(=O)c3cccc(Cl)c3)CC1)O2` gave a melting point of 135 to 140 °C.
Then `O=c1n(-c2ccc(OCC(F)(F)C(F)F)cc2)cnn1-c1ccc([N+](=O)[O-])cc1`, with 161 to 162 °C; and `CCOC(=O)c1cnn2c1nc(Cl)c1cnc3c(cnn3CC)c12`, with 170 to 172 °C; and `CCS(=O)(=O)N(C)C1c2cc(Cl)cc(Cl)c2OC(C)(C)C1OC(C)=O` (stereo not given), with 136 to 137 °C.
To `CCn1c(=O)c2cnc(N)nc2n(CC)c1=O` belongs 230 to 232 °C; to `CC(=O)c1cc(C(C)(C)C)cc(Br)c1O`, 98 to 98.5 °C.
In turn, `CCOCc1nc(C(=O)OCC)c(C(=O)OCC)[nH]1` came in with a melting point of 60 to 61 °C.
Then `COc1nc(C)nc(NC(=O)NS(=O)(=O)c2cccc3c2OC(C)(C)O3)n1`, with 160 to 168 °C.
To `COc1cc(OS(C)(=O)=O)ccc1C1=NC2=NCC(=O)NC2=N1` belongs greater than 260 °C; to `Cc1cnc(N)cc1C`, 113 to 114 °C; to `OCCN(CCc1ccccc1)C(=S)NCCCc1ccncc1`, 106 to 107 °C.
To `COC(=O)c1ccccc1S(=O)(=O)N1CCC[C@H]1C(=O)N[C@@H](Cc1ccccc1)C(=O)O` belongs 163 to 165 °C; to `Nc1ccc(S(=O)(=O)c2cc(N)nc(Br)c2)cc1`, 204 to 205 °C.
Take `CCCNc1nc(C#N)c(C#N)nc1CC(C)C`: the melting point was 107 to 110 °C.
Then `CCOC(=O)c1c(-c2ccc(F)cc2)cc(-c2cccc3c2OCO3)nc1C(C)C`, with 148 to 150 °C; and `CSc1cc(C)nc(O)n1`, with 165 °C.
To `CS(=O)(=O)c1ccc(C(=O)C2C(=O)CCC(S(C)(=O)=O)C2=O)c(Cl)c1` (stereo not given) belongs 175 to 180 °C.

Usually melting point stands for the temperature, or range, at which the solid turns liquid.
